Laboratory results published in the NIST ThermoML archive (doi:10.1021/je300507h).
Numbers after ± are expanded uncertainties.

Settings: 101.33 kPa, Liquid; for viscosity: Capillary tube (Ostwald / Ubbelohde) method; for electrical conductivity: Wayne-Kerr 6430B Autobalance Bridge electrode

viscosity (303.15 K) [mPa·s] | electrical conductivity (303.15 K) [S/m] | electrical conductivity (308.15 K) [S/m] | viscosity (313.15 K) [mPa·s] | electrical conductivity (313.15 K) [S/m] | electrical conductivity (318.15 K) [S/m] | viscosity (323.15 K) [mPa·s] | electrical conductivity (323.15 K) [S/m] | electrical conductivity (328.15 K) [S/m] | viscosity (333.15 K) [mPa·s] | electrical conductivity (333.15 K) [S/m] | electrical conductivity (338.15 K) [S/m] | viscosity (343.15 K) [mPa·s] | electrical conductivity (343.15 K) [S/m] | electrical conductivity (323.05 K) [S/m] | Compound
288.8 ± 12 | 0.0731 ± 0.00074 | 0.1014 ± 0.001 | 149.9 ± 4.2 | 0.136 ± 0.0014 | 0.178 ± 0.0018 | 86.13 ± 1.5 | 0.229 ± 0.0023 | 0.2902 ± 0.0029 | 53.43 ± 0.58 | 0.36 ± 0.0036 | 0.44 ± 0.0044 | 35.33 ± 0.44 | 0.5319 ± 0.0053 |  | CC(=O)[O-].CCCCn1cc[n+](C)c1 [1-butyl-3-methylimidazolium acetate]
138.5 ± 3.4 | 0.1909 ± 0.0019 | 0.249 ± 0.0025 | 80.53 ± 1.3 | 0.319 ± 0.0032 | 0.4019 ± 0.004 | 50.78 ± 0.53 | 0.498 ± 0.005 | 0.6125 ± 0.0061 | 34 ± 0.37 | 0.738 ± 0.0074 | 0.88 ± 0.0088 | 23.94 ± 0.27 | 1.04 ± 0.01 |  | CCCC[n+]1ccn(C)c1.O=C[O-] [3-butyl-1-methyl-1H-imidazolium formate]
325.7 ± 14 | 0.0703 ± 0.00071 | 0.0902 ± 0.00091 | 171.5 ± 5.2 | 0.1201 ± 0.0012 | 0.156 ± 0.0016 | 99.27 ± 1.9 |  | 0.248 ± 0.0025 | 61.78 ± 0.72 | 0.306 ± 0.0031 | 0.3716 ± 0.0037 | 40.75 ± 0.51 | 0.447 ± 0.0045 | 0.198 ± 0.002 | CCC(=O)[O-].CCCC[n+]1ccn(C)c1 [3-butyl-1-methyl-1H-imidazolium propanoate]
364.3 ± 16 | 0.04102 ± 0.00041 | 0.0558 ± 0.00056 | 193.1 ± 6.3 | 0.0752 ± 0.00076 | 0.0992 ± 0.001 | 111.6 ± 2.4 |  | 0.165 ± 0.0017 | 69.24 ± 0.9 | 0.208 ± 0.0021 | 0.258 ± 0.0026 | 45.43 ± 0.58 | 0.315 ± 0.0032 | 0.129 ± 0.0013 | CCCC(=O)[O-].CCCC[n+]1ccn(C)c1 [3-butyl-1-methyl-1H-imidazolium butanoate]
